This is an account of results in patent publication US12410178B2, “Small cationic ortho-5,15-di-heteroaryl-porphyrin derivatives and their applications in photoinactivation of microorganisms” (UNIVERSIDADE DE COIMBRA, priority 2019, dated 2025).

Data set [1] is described as follows: Optical absorption, molar absorption coefficient. It counts as physicochemical. The settings on record: water with 9% dimethylsulfoxide. The protocol: Optical Absorption: The ultra-violet visible optical absorption (UV-vis) spectra used in the control of the synthesis were recorded on Hitachi U-2001 or Shimadzu 2100 spectrophotometers using spectroscopic grade solvents. The UV-Vis-NIR optical absorption was recorded with an Agilent Cary5000 UV-Vis-NIR Spectrophotometer in the determination of the molar absorption coefficient and with Shimadzu UV-2100 spectrometer in routine measurements. The absorption spectra were recorded in the wavelengths from 300 nm up to 800 nm. Molar absorption coefficients were determined by using Beer-Lambert's law. For each compound, a minimum of 6 solutions were prepared in concentrations ranging from 10^−7 to 10^−6 M, giving absorbance values between 0.1 and 1.
The absorptivities of the compounds and other photophysical and photobiological properties were measured as described in the Materials and Methods. […] This is indicative of negligible aggregation between the molecules, which exist mostly as monomers at the studied concentrations in the selected solvents. […] The same table also presents the fluorescence quantum yield (ΦF), singlet oxygen generation (ΦΔ) and the logarithm of the n-octanol:water partition coefficient (log POW). […]

A short description of data set [2]: Fluorescence quantum yield. It counts as physicochemical. The note with it: standard TPP in toluene. The protocol: Fluorescence Emission: The fluorescence emission spectra were recorded in a Horiba Scientific Spectrofluorometer Fluoromax-4. The spectra were collected from 550 nm up to 800 nm using standard cuvettes of 1 cm of optical path. Fluorescence quantum yields (ΦF) were obtained comparing the area of integrated fluorescence of the samples with that of a reference fluorimetric compound with known ΦF, corrected by the absorption of sample and reference at the excitation wavelength and by the refractive indices of the solvents used for the standard and reference solution. Tetraphenylporphyrin (TPP) in toluene (ΦF=0.11) was used as standard. The absorbance of the solutions at the excitation wavelength was 0.01.

Data set [3] concerns Staphylococcus aureus ATCC 25925 biofilms. Briefly: PDI phototoxicity towards biofilms (CFU). It counts as cell-based. On the procedure:
Phototoxicity towards biofilms was evaluated after biofilm growth overnight. Assays were performed with biofilms from Staphylococcus aureus ATCC 25925. Initially, bacteria cultures were diluted 1:9 in Brain Heart Infusion (BHI) (Kasvi®, Brazil). The microorganisms were centrifuged (1500 rpm, 10 min) and washed twice with phosphate-buffered saline (PBS). Aliquots of the diluted bacterial suspensions were inoculated into 24-well flat-bottom sterile polystyrene microplates and incubated for 24 h at 37° C. For PDI experiments, the plates with biofilms were incubated with 5.2 nM of the photosensitizer for 30 min in the dark at room temperature. Wells used as controls were incubated with PBS only. After that, the plates were illuminated with a specially designed light source named Biotable®. The Biotable® was composed by 24 LED lamps that deliver a uniform light fluence rate of 30 mW/cm^2 in the wavelength range between 400-650 rm. […] After this time, the colonies were counted and the colony-forming units (CFU) determined.
For the phototoxicity study, Staphylococcus aureus ATCC 25925 biofilms grown on 24-well flat-bottom sterile polystyrene microplates were incubated with 5.2 nM of the cationic ortho-5,15-di-heteroaryl porphyrin with Formula (IIa) for 30 min in the dark at room temperature. […] After this time, the colonies were counted and CFU determined. […]

The subject of data set [4] is HDFn neonatal human dermal fibroblast. As to the kind of experiment: Toxicity and phototoxicity towards human cell lines (MTT). It counts as cell-based. On the procedure: (§1) Toxicity towards human cell lines was evaluated in vitro using the 3-(4,5-dimethylthiazol-2-yl)2,5-diphenyl tetrazolium bromide (MTT, from Sigma Aldrich) assay to estimate the viability of cells after appropriate treatment. After cell attachment, photosensitizer solutions in PBS at concentrations between 0 to 10 μM were added to the cell cultures and incubated for 1 h at 37° C. in the dark. After illumination with the Biotable® or after the equivalent time in control experiments, MTT dissolved at 5 mg/ml in PBS was added to each well (final concentration 0.5 mg/ml), and the microplates were further incubated for 3-4 hours. Medium were then discarded and 100 μl of methanol were added to the cultures and mixed thoroughly to dissolve the dark blue crystals of formazan. Formazan quantification was performed using an automatic microplate reader (Multiskan Go Thermo) by absorbance measurements at 570 nm. Each experiment was repeated three times. Data were expressed as mean absorbance value of six samples and standard error of the mean.
(§2) This example describes the evaluation of in vitro toxicity against HDFn neonatal human dermal fibroblast and HaCaT immortalized human keratinocyte cell lines of a cationic ortho-5,15-di-heteroaryl porphyrin with Formula (IIa). Both types of cells were grown in DMEM (BioTech) with addition of 10% fetal bovine serum (Cultilab—Campinas, SP, Brazil). Before the experiments, the cells were removed by trypsinization, washed with PBS and maintained in a humidified atmosphere at 37° C. and 5% CO2. The cells were incubated in the dark with the photosensitizer of Formula (IIa) in PBS for 30 min at concentrations up to 10 μM, and then illuminated with the Biotable® to deliver 5 J/cm^2 in the wavelength range between 400-700 nm. After exposure to light, the cells were washed with fresh medium and plates were returned to the incubator for 24 h. Cell viability was determined by a MTT assay performed 24 h after irradiation. The cells in the control experiment remained in the dark for the time of the illumination. […] Exposure to a light dose of 5 J/cm^2 led only to a 20% decrease in the viability of fibroblasts at the highest drug dose tested: 10 μM.

Data set [5] has as its system HaCaT immortalized human keratinocyte. The description is as above. It counts as cell-based. The protocol:
as §1, §2

With `Cn1cc[n+](C)c1C1=C2C=CC3=[N+]2[Zn@]24[n]5c(ccc51)C=C1C=CC(=[N+]12)C(c1n(C)cc[n+]1C)=c1ccc([n]14)=C3` [Formula (IIa), 5,15-bis(1,3-dimethylimidazol-2-yl)porphyrinate zinc (II) diiodide], the “ε(λ)/10^3 molar absorption coefficient” value in data set [1] (at 407 nm) is recorded as >20 10^3 M^−1 cm^−1. Moreover, the “λ (most intense absorption band)” value in data set [1] came to 407 nm. For the same molecule, the “ΦF fluorescence quantum yield” value in data set [2] was found to be 0.10. Further, the “log CFU at 5.2 nM, S. Aureus biofilm” value in data set [3] (5.2 nM, biofilm, 5 J/cm^2, 400-650 nm, 30 min incubation) stood at 7. In addition, the “reduction of bacteria in the biofilm” value in data set [3] (ca. 5 nM, 5 J/cm^2 of white light) was 7 orders of magnitude. The “Dark cytotoxicity, cell viability” value in data set [4] (10 μM, in the dark) was “did not show a statistically significant reduction of cell viability”; in data set [5] (10 μM, in the dark), “did not show a statistically significant reduction of cell viability”. Also, the “decrease in the viability” value in data set [4] (10 μM, light dose 5 J/cm^2) is 20%. Also, the “Survival fraction at 10 μM, Fibroblast” value in data set [4] (light dose 5 J/cm^2) came out at 100%. Besides, the “Survival fraction at 10 μM, Keratinocytes” value in data set [5] (light dose 5 J/cm^2) was found to be 80%.
